Literature values, collected in patent publication US8063249B1, “Substituted triphenyl butenes” (Olema Pharmaceuticals, Inc., priority 2008, dated 2011).
Where two headings read alike, the source gives them in different places.

Columns and labels:
ER = details: for binding constants for the ER compared with estradiol: relative to estradiol, from Jordan, Steroids 2007; for binding to the ER: statement in words, from the literature
UGT 1A8 = target: T1, UGT 1A8 (Homo sapiens, UniProt Q9HAW9)
T1 sequence (Q9HAW9 26-530): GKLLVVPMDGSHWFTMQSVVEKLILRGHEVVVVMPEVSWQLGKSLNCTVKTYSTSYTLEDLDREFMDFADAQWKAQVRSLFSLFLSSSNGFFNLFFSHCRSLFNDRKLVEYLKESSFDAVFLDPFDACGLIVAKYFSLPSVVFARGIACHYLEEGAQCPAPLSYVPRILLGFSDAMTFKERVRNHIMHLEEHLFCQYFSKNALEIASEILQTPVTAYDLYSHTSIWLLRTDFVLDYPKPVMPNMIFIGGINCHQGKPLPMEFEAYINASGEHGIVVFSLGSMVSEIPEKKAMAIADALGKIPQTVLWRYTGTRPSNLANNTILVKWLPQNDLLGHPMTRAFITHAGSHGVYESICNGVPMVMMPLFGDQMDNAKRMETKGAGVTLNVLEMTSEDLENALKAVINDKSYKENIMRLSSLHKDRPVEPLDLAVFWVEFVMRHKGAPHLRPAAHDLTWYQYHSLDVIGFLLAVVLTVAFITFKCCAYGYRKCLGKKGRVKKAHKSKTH

UGT 1A10 = target: T2, UGT 1A10 (Homo sapiens, UniProt Q9HAW8)
T2 sequence (Q9HAW8 26-530): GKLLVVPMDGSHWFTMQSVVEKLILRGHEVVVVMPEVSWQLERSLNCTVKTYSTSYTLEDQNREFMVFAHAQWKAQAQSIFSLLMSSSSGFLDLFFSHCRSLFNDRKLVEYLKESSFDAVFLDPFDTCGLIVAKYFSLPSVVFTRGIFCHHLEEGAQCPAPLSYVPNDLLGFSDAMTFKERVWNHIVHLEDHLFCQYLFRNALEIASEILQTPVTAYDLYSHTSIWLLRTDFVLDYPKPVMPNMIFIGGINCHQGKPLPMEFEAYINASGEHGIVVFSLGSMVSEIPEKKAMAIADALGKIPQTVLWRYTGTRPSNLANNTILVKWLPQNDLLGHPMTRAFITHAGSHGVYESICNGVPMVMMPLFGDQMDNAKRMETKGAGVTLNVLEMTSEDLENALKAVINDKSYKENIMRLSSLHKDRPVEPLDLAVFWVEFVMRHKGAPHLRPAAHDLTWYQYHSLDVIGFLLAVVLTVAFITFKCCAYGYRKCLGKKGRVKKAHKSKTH

[1] = hydroxy group, from Sun et al. 2007

Compound	binding constants for the ER compared with estradiol (ER)	binding to the ER (ER)	substrate for O-glucuronidation by UGT 1A8 (UGT 1A8)	substrate for O-glucuronidation by UGT 1A10 (UGT 1A10)	substrate for O-glucuronidation by UGT 1A8 (UGT 1A8; [1])	substrate for O-glucuronidation by UGT 1A10 (UGT 1A10; [1])
4-hydroxy tamoxifen	roughly equal to that of estradiol	bind with high affinity	substrates for O-glucuronidation	substrates for O-glucuronidation	–	–
CC/C(=C(\c1ccccc1)c1ccc(OCCN(C)C)cc1)c1ccccc1 [Tamoxifen, tamoxifen]	–	binds very poorly	–	–	–	–
CC/C(=C(\c1ccc(O)cc1)c1ccc(OCCNC)cc1)c1ccccc1 [endoxifen, 4-hydroxy N-desmethyl tamoxifen]	roughly equal to that of estradiol	bind with high affinity	–	–	substrates for O-glucuronidation	substrates for O-glucuronidation
CCC(=C(c1ccc(OCCNC)cc1)c1ccc(OC2OC(C(=O)O)C(O)C(O)C2O)cc1)c1ccccc1 (stereo not shown) [glucuronated endoxifen]	–	can no longer bind	–	–	–	–
